Assay results taken from US11369114B2, “Antimicrobial coatings comprising organosilane homopolymers” (ALLIED BIOSCIENCE, INC., priority 2014, dated 2022).

Tested on: E. coli
Assay: Efficacy of treated coupons after inoculation with E. coli (Examples II-V)
Format: cell-based
Settings: Examples IV/V: organosilane with triethanolamine coating first, Titanium Oxide Moieties (TiO2) disposed over it
Experimental: This Example II disposes the components of the composition onto a target surface in a reverse order. More specifically, Applicants first dispose the Titanium-Oxide Moieties onto the target surface, the aqueous portion of the first spray deposition is evaporated, and then dispose Octadecylaminodimethyltrihydroxysilylpropyl Ammonium Chloride 6 over the earlier-disposed Titanium-Oxide Moieties.
The test coupons of this Example II were prepared and using the Procedure recited immediately hereinbelow. In various embodiments, the treated coupons were stored for at least four (4) weeks prior to inoculation with various organisms.
This Example III simultaneously disposes a mixture of the organosilane and the Titanium-Oxide Moieties onto the surface of a plurality of test coupons. More specifically in this Example III, the simultaneously dispose the Titanium-Oxide Moieties and Octadecylaminodimethyltrihydroxysilylpropyl Ammonium Chloride 6 onto a surface of each test coupon.
The test coupons of this Example III were prepared and using the Procedure recited immediately hereinbelow. In various embodiments, the treated coupons were stored for at least four (4) weeks prior to inoculation with various organisms.
The test coupons of this Example IV were prepared and using the Procedure recited immediately hereinbelow. […]

Compound	efficacy of treated coupons (self-decontaminating surface)
NCCC[Si](O)(O)O [3-aminopropyltrihydroxysilane]	generates a self-decontaminating surface
O[Si](O)(O)CCCCl [3-chloropropyltrihydroxysilane]	generates a self-decontaminating surface
